These results are taken from patent US20140005163A1 (NOVARTIS AG, priority 2010, published 2014).

Each structure is given as a SMILES string. A value given as a limit tells only on which side of the number the result lay.

The target in one assay is T1, PI3K beta (Homo sapiens, UniProt P42338).
T1 construct: for the full-length p110-b subunit are generated and fused by overlapping PCR; p85(iSH2) fusion partner (see partner chain) (N); His tag (C); made in house; host or cells: baculovirus; Tn5 (Trichoplusia ni) or TiniPro insect cells
As to the kind of experiment: PI3K beta kinase assay (Kinase-Glo luminescence). The format is biochemical. Put shortly:
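p110β full-length/p85 iSH2 construct (BV-949), 25 nM, with 1 μM ATP and 10 μg/mL phosphatidylinositol in 10 mM Tris pH 7.5, 3 mM MgCl2, 50 mM NaCl, 0.05% CHAPS, 1 mM DTT. 60 min at room temperature; ATP remaining read by Kinase-Glo luminescence. IC50 from 8-point four-parameter logistic fit.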
For orientation: Kinase-Glo measures the ATP left after a reaction by luminescence.

For another assay, the target named is T2, mTOR (Homo sapiens, UniProt P42345).
T2 construct: purchased Invitrogen Corporation (Carlsbad/CA, USA) PV4753
As to the kind of experiment: Biochemical assay for m-TOR by TR-FRET. As to conditions: 8 μM ATP, 400 nM GFP-4EBP1, 0.5 nM mTOR. Put shortly:
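mTOR (0.5 nM) was incubated at rt with ATP (8 μM final) and GFP-4EBP1 (400 nM final) in 50 mM HEPES pH 7.5, 10 mM MnCl2, 50 mM NaCl, 1 mM EGTA, 1 mM DTT. EDTA stop with Tb3+-anti-p4EBP1 [pThr46] antibody (0.5 nM); TR-FRET read 15 min later.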
(In general: In TR-FRET formats the signal depends on donor and acceptor labels being close together.)

The test system of assay [1] is PKB Ser473 phosphorylation in Rat1-myr-HA-p110 alpha cells. The experiment in a line: Reverse protein array assay, PKB Ser473 phosphorylation in Rat1-myr-p110 alpha cells. The format is cell-based. As to conditions: 0.5 h, pAkt Ser473, 30 minutes compound incubation, read-out: p-PKB IC50. The essentials: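 Lysates were arrayed at four dilutions, and phospho-PKB Ser473 was quantified by relative fluorescence signal. They came from Rat1-myr-HA-p110 alpha, beta or delta cells exposed for 30 min at 37 °C to an 8-point compound series with 0.2% DMSO constant.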

T2 sequence (P42345 1360-2549 limits assumed): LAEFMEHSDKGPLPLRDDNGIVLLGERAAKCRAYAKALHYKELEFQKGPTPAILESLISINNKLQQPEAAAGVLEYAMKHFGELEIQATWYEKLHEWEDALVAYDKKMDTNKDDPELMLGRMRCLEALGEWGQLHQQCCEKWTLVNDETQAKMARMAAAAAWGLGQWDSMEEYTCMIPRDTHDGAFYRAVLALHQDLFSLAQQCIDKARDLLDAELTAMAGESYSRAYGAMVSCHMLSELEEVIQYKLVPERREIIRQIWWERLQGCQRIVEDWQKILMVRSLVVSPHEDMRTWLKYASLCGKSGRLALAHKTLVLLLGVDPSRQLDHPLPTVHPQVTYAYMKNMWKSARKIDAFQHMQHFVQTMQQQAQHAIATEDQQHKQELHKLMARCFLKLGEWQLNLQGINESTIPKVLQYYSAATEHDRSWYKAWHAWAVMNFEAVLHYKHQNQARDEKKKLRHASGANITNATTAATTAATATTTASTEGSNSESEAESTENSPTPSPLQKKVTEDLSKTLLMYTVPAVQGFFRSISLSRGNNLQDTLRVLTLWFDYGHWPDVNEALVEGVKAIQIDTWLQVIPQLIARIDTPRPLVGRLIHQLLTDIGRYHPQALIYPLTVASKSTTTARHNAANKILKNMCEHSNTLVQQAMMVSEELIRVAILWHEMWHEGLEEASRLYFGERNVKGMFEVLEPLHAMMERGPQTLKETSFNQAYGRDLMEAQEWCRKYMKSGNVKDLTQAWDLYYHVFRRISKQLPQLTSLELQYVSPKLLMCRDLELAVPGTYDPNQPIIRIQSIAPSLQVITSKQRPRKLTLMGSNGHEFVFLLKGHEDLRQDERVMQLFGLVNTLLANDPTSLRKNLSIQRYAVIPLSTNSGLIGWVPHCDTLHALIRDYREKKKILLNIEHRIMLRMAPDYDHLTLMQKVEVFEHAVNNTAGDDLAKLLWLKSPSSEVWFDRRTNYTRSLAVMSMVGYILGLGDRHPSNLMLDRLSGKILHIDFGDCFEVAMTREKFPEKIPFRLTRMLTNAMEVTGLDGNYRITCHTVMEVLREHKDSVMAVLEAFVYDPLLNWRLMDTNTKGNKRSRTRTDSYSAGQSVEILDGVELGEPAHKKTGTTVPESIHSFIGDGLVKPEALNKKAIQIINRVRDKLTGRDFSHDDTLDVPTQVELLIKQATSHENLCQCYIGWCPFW
T1 sequence (P42338 with tags, fused parts or gaps limits assumed): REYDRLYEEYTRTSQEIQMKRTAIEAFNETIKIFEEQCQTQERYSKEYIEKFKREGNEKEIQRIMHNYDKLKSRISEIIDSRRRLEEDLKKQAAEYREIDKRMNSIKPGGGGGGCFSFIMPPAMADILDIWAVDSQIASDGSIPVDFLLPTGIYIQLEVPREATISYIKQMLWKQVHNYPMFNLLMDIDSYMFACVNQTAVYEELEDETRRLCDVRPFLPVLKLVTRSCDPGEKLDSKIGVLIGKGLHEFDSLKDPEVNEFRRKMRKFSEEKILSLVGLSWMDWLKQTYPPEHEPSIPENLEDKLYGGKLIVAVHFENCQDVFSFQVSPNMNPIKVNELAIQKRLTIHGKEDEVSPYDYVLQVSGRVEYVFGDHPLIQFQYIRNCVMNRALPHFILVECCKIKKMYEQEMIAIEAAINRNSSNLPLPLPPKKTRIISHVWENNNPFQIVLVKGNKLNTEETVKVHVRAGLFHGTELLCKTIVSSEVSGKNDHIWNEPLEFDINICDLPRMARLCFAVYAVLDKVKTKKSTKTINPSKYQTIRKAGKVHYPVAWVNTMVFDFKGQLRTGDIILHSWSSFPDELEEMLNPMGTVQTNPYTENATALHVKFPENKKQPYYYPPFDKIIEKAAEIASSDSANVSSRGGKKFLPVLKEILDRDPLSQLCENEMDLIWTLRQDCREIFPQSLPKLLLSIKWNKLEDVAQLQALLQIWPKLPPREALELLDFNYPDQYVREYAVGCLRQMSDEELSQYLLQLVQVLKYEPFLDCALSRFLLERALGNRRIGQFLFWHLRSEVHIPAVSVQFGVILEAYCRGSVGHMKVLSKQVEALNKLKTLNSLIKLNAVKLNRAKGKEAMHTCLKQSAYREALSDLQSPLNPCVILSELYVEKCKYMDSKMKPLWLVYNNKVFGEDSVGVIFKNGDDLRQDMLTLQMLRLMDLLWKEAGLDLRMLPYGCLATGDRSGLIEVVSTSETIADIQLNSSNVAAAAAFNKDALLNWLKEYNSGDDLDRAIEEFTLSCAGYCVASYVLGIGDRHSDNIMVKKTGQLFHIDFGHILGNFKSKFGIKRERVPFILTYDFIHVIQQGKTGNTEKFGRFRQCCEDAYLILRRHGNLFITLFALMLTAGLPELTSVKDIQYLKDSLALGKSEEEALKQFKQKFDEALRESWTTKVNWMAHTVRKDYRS

By IC50 is commonly meant the concentration that inhibits the measured activity by half. With `CNc1ncc(-c2ccc3ncc4c(c3c2)n(-c2cn(C)nc2C)c(=O)n4C)cc1C(F)(F)F` [Example 144.3, 1-(1,3-Dimethyl-1H-pyrazol-4-yl)-3-methyl-8-(6-methylamino-5-trifluoromethyl-pyridin-3-yl)-1,3-dihydro-imidazo[4,5-c]quinolin-2-one], the figures for the concentration for half-maximal inhibition (IC50) (at PI3K beta; at mTOR; in assay [1]) were 16 nM, 3 nM and under 5 nM, respectively.
As to `CNc1ncc(-c2ccc3ncc4c(c3c2)n(-c2cn(C)nc2C)c(=O)n4C)cc1Cl` [Example 146.1, 8-(5-Chloro-6-methylamino-pyridin-3-yl)-1-(1,3-dimethyl-1H-pyrazol-4-yl)-3-methyl-1,3-dihydro-imidazo[4,5-c]quinolin-2-one], the IC50 was 45 nM on PI3K beta, under 3 nM at mTOR and under 5 nM in assay [1].
`CCn1cc(-n2c(=O)n(C)c3cnc4ccc(-c5cnc(NC)c(Cl)c5)cc4c32)c(C)n1` [Example 146.2, 8-(5-Chloro-6-methylamino-pyridin-3-yl)-1-(1-ethyl-3-methyl-1H-pyrazol-4-yl)-3-methyl-1,3-dihydro-imidazo[4,5-c]quinolin-2-one]: the IC50 is 66 nM on PI3K beta, 20 nM at mTOR and under 5 nM in assay [1].
The matching figures for `Cc1nn(C(C)C)cc1-n1c(=O)n(C)c2cnc3ccc(-c4cnc(F)c(N)c4)cc3c21` [Example 149.1, 8-(5-Amino-6-fluoro-pyridin-3-yl)-1-(1-isopropyl-3-methyl-1H-pyrazol-4-yl)-3-methyl-1,3-dihydro-imidazo[4,5-c]quinolin-2-one]: 68 nM, 79 nM and 31 nM.
For the compound `Cc1nn(C)cc1-n1c(=O)n(C)c2cnc3ccc(-c4cnc(F)c(N)c4)cc3c21` [Example 149.2, 8-(5-Amino-6-fluoro-pyridin-3-yl)-1-(1,3-dimethyl-1H-pyrazol-4-yl)-3-methyl-1,3-dihydro-imidazo[4,5-c]quinolin-2-one], the figures for the IC50 (at PI3K beta; at mTOR; in assay [1]) were 12 nM, 39 nM and 80 nM, respectively.
The matching figures for `CCn1cc(-n2c(=O)n(C)c3cnc4ccc(-c5cnc(F)c(NC)c5)cc4c32)c(C)n1` [Example 150.1, 1-(1-Ethyl-3-methyl-1H-pyrazol-4-yl)-8-(6-fluoro-5-methylamino-pyridin-3-yl)-3-methyl-1,3-dihydro-imidazo[4,5-c]quinolin-2-one]: 17 nM, 17 nM and 9 nM.
The matching figures for `CCNc1cc(-c2ccc3ncc4c(c3c2)n(-c2c(C)nn(C)c2C)c(=O)n4C)cnc1Cl` [Example 153.1, 8-(6-Chloro-5-ethylamino-pyridin-3-yl)-3-methyl-1-(1,3,5-trimethyl-1H-pyrazol-4-yl)-1,3-dihydro-imidazo[4,5-c]quinolin-2-one]: 14 nM, 98 nM and 19 nM.
With `CCNc1cc(-c2ccc3ncc4c(c3c2)n(-c2cn(C(C)C)nc2C)c(=O)n4C)cnc1CO` [Example 155.3, 8-(5-Ethylamino-6-hydroxymethyl-pyridin-3-yl)-1-(1-isopropyl-3-methyl-1H-pyrazol-4-yl)-3-methyl-1,3-dihydro-imidazo[4,5-c]quinolin-2-one], the half-inhibitory concentration (IC50) at PI3K beta was 46 nM; on mTOR, 5 nM; in assay [1], under 5 nM.
The matching figures for `CCNc1cc(-c2ccc3ncc4c(c3c2)n(-c2c(C)nn(C)c2C)c(=O)n4C)cnc1CO` [Example 155.4, 8-(5-Ethylamino-6-hydroxymethyl-pyridin-3-yl)-3-methyl-1-(1,3,5-trimethyl-1H-pyrazol-4-yl)-1,3-dihydro-imidazo[4,5-c]quinolin-2-one]: 55 nM, 22 nM and 88 nM.
The matching figures for `CCNc1cc(-c2ccc3ncc4c(c3c2)n(-c2cn(CC)nc2C)c(=O)n4C)cnc1COC` [Example 157, 8-(5-Ethylamino-6-methoxymethyl-pyridin-3-yl)-1-(1-ethyl-3-methyl-1H-pyrazol-4-yl)-3-methyl-1,3-dihydro-imidazo[4,5-c]quinolin-2-one]: 28 nM, 10 nM and under 5 nM.
The matching figures for `CNc1cc(-c2ccc3ncc4c(c3c2)n(-c2cn(C)nc2C)c(=O)n4C)cnc1COC` [Example 159, 1-(1,3-Dimethyl-1H-pyrazol-4-yl)-8-(6-methoxymethyl-5-methylamino-pyridin-3-yl)-3-methyl-1,3-dihydro-imidazo[4,5-c]quinolin-2-one]: 100 nM, 12 nM and 7 nM.
With `CCNc1cc(-c2ccc3ncc4c(c3c2)n(-c2cn(C)nc2C)c(=O)n4C)cnc1CC` [Example 161, 1-(1,3-Dimethyl-1H-pyrazol-4-yl)-8-(6-ethyl-5-ethylamino-pyridin-3-yl)-3-methyl-1,3-dihydro-imidazo[4,5-c]quinolin-2-one], the IC50 is 18 nM at PI3K beta, under 3 nM on mTOR and under 5 nM in assay [1].
The matching figures for `CCc1ncc(-c2ccc3ncc4c(c3c2)n(-c2cn(C)nc2C)c(=O)n4C)cc1NC(C)C` [Example 162, 1-(1,3-Dimethyl-1H-pyrazol-4-yl)-8-(6-ethyl-5-isopropylamino-pyridin-3-yl)-3-methyl-1,3-dihydro-imidazo[4,5-c]quinolin-2-one]: 20 nM, 3 nM and under 5 nM.
The matching figures for `CCOCc1cc(-c2ccc3ncc4c(c3c2)n(-c2cn(C)nc2C)c(=O)n4C)cnc1N` [Example 166.1, 8-(6-Amino-5-ethoxymethyl-pyridin-3-yl)-1-(1,3-dimethyl-1H-pyrazol-4-yl)-3-methyl-1,3-dihydro-imidazo[4,5-c]quinolin-2-one]: 37 nM, 33 nM and 22 nM.
`Cn1cc(-n2c(=O)n(C)c3cnc4ccc(-c5cnc(N)c(CO)c5)cc4c32)c(Cl)n1` [Example 169.3, 8-(6-Amino-5-hydroxymethyl-pyridin-3-yl)-1-(3-chloro-1-methyl-1H-pyrazol-4-yl)-3-methyl-1,3-dihydro-imidazo[4,5-c]quinolin-2-one]: the half-maximal inhibitory concentration (IC50) is 7 nM at PI3K beta, under 3 nM at mTOR and 19 nM in assay [1].
Regarding `Cc1nn(CCO)cc1-n1c(=O)n(C)c2cnc3ccc(-c4cncc(N5CCOCC5)c4)cc3c21` [Example 175.3, 1-[1-(2-Hydroxy-ethyl)-3-methyl-1H-pyrazol-4-yl]-3-methyl-8-(5-morpholin-4-yl-pyridin-3-yl)-1,3-dihydro-imidazo[4,5-c]quinolin-2-one], the 50% inhibitory concentration (IC50) at PI3K beta is 559 nM; on mTOR, 19 nM; in assay [1], 344 nM.
The matching figures for `CCN(C)c1cncc(-c2ccc3ncc4c(c3c2)n(-c2cn(C)nc2C)c(=O)n4C)c1` [Example 176, 1-(1,3-Dimethyl-1H-pyrazol-4-yl)-8-[5-(ethyl-methyl-amino)-pyridin-3-yl]-3-methyl-1,3-dihydro-imidazo[4,5-c]quinolin-2-one]: 33 nM, 15 nM and under 5 nM.
Turning to `Cc1nn(C)cc1-n1c(=O)n(C)c2cnc3ccc(-c4cncc(OC(F)F)c4)cc3c21` [Example 183, 8-(5-Difluoromethoxy-pyridin-3-yl)-1-(1,3-dimethyl-1H-pyrazol-4-yl)-3-methyl-1,3-dihydro-imidazo[4,5-c]quinolin-2-one], the IC50 was 4 nM on PI3K beta, under 3 nM on mTOR and 23 nM in assay [1].
The matching figures for `COc1cc(-c2ccc3ncc4c(c3c2)n(-c2cn(C)nc2C)c(=O)n4C)cnc1C` [Example 184, 1-(1,3-Dimethyl-1H-pyrazol-4-yl)-8-(5-methoxy-6-methyl-pyridin-3-yl)-3-methyl-1,3-dihydro-imidazo[4,5-c]quinolin-2-one]: 10 nM, 6 nM and 5 nM.
Take `CCOc1cc(-c2ccc3ncc4c(c3c2)n(-c2cn(C)nc2C)c(=O)n4C)cnc1COC` [Example 197.1, 1-(1,3-Dimethyl-1H-pyrazol-4-yl)-8-(5-ethoxy-6-methoxymethyl-pyridin-3-yl)-3-methyl-1,3-dihydro-imidazo[4,5-c]quinolin-2-one]: the figures for the IC50 (at PI3K beta; on mTOR; in assay [1]) were 468 nM, 39 nM and 23 nM, respectively.
Regarding `Cc1nn(CC(=O)N2CCC2)cc1-n1c(=O)n(C)c2cnc3ccc(-c4cncc(OC(C)C)c4)cc3c21` [Example 205, 1-[1-(2-Azetidin-1-yl-2-oxo-ethyl)-3-methyl-1H-pyrazol-4-yl]-8-(5-isopropoxy-pyridin-3-yl)-3-methyl-1,3-dihydro-imidazo[4,5-c]quinolin-2-one], the IC50 on PI3K beta was 17 nM; at mTOR it was 22 nM; in assay [1], 76 nM.
